From patent US20070166710A1, “Methods for inhibiting adipogenesis and for treating type 2 diabetes” (priority 2003, published 2007)
Residue numbers refer to the chain shown, from its start.

Tests used:
Foxa-2 (transfected) = target: T1, Foxa-2 (transfected) (UniProt P32182); assay: cell_activity
T1 sequence: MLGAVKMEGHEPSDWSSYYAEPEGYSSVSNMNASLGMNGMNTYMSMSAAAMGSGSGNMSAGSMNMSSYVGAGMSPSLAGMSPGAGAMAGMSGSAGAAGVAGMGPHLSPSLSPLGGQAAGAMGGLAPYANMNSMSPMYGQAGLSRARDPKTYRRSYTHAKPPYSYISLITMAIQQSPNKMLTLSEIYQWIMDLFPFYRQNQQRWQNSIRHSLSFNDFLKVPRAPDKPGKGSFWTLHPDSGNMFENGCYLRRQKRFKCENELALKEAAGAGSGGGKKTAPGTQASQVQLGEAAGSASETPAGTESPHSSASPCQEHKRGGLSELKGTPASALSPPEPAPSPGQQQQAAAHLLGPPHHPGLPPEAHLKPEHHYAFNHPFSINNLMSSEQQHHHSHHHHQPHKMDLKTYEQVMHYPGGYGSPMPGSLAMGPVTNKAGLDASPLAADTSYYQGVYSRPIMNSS

Foxa-2 expression [1] = assay: Foxa-2 expression in primary adipocytes from ob/ob mice, semiquantitative RT-PCR; assay type: cell-based; conditions: 60 hours
Description: (§1) Total RNA was extracted from cells and EBs using Trizol following manufacturer's instructions (Life Technologies, Inc.). […] The cDNAs provided templates for polymerase chain reactions (PCRs) using specific primers at annealing temperatures ranging between 60 and 65° C. in the presence of dNTPs, [α^-32P]dCTP, and Taq DNA polymerase. […] Primary adipocytes were isolated as described by Rodbell (1964) J. Biol. Chem. 239:375-380. […] (1995) J. Cell. Biochem. 58:435-463. The reaction was stopped by spinning through dinonyl […] oil and the radioactivity quantified by scintillation counting. […] (1995) Am. J. Physiol. 268:[…]-[…]. Fatty acid de novo synthesis was analyzed by saponification of total lipids as described by […] et al. (1978) J. […] Incorporation into lipid glycerol was calculated by subtracting fatty acid radioactive label from total lipid radioactive label. Primary adipocytes were isolated from ob/ob mice and cultured in MEM medium (control) or in the presence of insulin (100 μM; 24 hours and 60 hours, respectively) or rosiglitazone (50 μM), WY14,643 (100 μM), dexamethason (1 μM), leptin (100 ng/ml), TNF-α, (5 ng/ml), adiponectin (500 ng/ml) and glucagons (100 nM) for 60 hours. Gene expression was measured by semiquantitative RT-PCR. Steady state mRNA levels of Hprt were used as a control and indicate that each lane contains similar amounts of rnRNA. Reactions were also assayed in the absence of reverse transcriptase, showing that mRNA was not contaminated with genomic DNA.

Foxa-2 expression [2] = assay: Foxa-2 expression in primary adipocytes from lean wildtype C57B6 mice, semiquantitative RT-PCR; assay type: cell-based; conditions: 60 hours; leptin 100 ng/ml, TNF-α 5 ng/ml, adiponectin 500 ng/ml, glucagon 100 nM, glucose 20 mmol/L
Description: as §1, with “lean wildtype C57B6” for “ob/ob”, “nM;” for “μM;”, “dexametason” for “dexamethason”, “TNF-α” for “TNF-α,”, “mRNA.” for “rnRNA.”

[3] = target: T2, GST-Foxa-2T156A (recombinant, from E. coli BL21, pGEX-4T2) (UniProt P32182)
T2 sequence: T1 sequence with T156A

[4] = target: T3, GST-Foxa-2 (recombinant, from E. coli BL21, pGEX-4T2) (UniProt P32182)
T3 sequence: T1 sequence

Foxa-2 activity = assay: Transactivation assay, HepG2 cells transfected with Foxa-2 and pPepck-Luc or p6xCdx-TkLuc; assay type: cell-based, rat; conditions: coincubation, inhibitor 10 μM, insulin 100 nM
Description: Transfections and Transactivation assay. HepG2 cells were grown to 60-70% confluence in a 24-well dish and transfected with 50 ng of each reporter gene (p6xCdx-TkLuc or pPEPCK-Luc), pCMV-β-Gal as internal reference and the expression vectors for wildtype or mutant Foxa-1 and Foxa-2 and human Akt1/Akt2 using the transfection reagent Fugene6 (Roche). Cells were grown for 48 hours and luciferase activity was measured using the Luciferase Detection System (Promega). Luciferase was normalized for transfection efficiency by β-galactosidase activity.
To analyze whether Foxa-2 activity is regulated by insulin, HepG2 cells were transfected with a Foxa-2 expression vector and either plasmid pPepck-Luc or p6xCdx-TkLuc that contain a 621 bp promoter framnent of the human PEPCK gene or six Foxa-2 binding sites of the Cdx-2 gene upstream of a minimal promoter and the luciferase gene, respectively.

Foxa-2 [5] = assay: Immunofluorescence of subcellular distribution of endogenous Foxa-2 in HepG2 cells; assay type: cell-based; conditions: inhibitor in the presence of insulin (50 nM)
Description: Immunofluorescence microscopy. Cells were fixed for 30 minutes at room temperature with 2% paraformaldehyde. For immunofluorescent detection of Foxa-1 or Foxa-2, fixed cells were incubated with respective polyclonal antibodies (1:100) (Ruiz i Altaba et al. (1993) Mech. Dev. 44: 91-108) overnight at 4° C. After washing, the cells were treated with anti rabbit IgG secondary antibody linked to Alexa Fluor 488 (Molecular Probes). Immunofluorescent staining was visualized using laser-scanning micrsocopy. To determine whether Akt-induced phosporylation of Foxa-2 has an effect on the subcellular distribution of this transcription factor, the following experiment was performed. HepG2 cells were grown to 60% confluency and endogenous Foxa-1 and Foxa-2 proteins were visualized by immunofluorescence after staining with anti Foxa-1 and Foxa-2 antibodies. Cells were either examined in the absence or presence of insulin (50 nM) and/or Ly294002 or PD98059, and after transfection with either Akt1 or Akt2 expression vectors (FIG. 5B). […] Treatment of cells with MAPKK1 inhibitor PD98059 had no effect on insulin stimulated nuclear exclusion of Foxa-2. The subcellular distribution of Foxa-2 in cells that were stimulated with insulin and expressed a dominant negative form of Akt (Akt[…]) were resistant to nuclear exclusion. […]

Pepck, G6pc and Igfbp-1 = assay: mRNA levels of Foxa-2 target genes in primary hepatocytes (RT-PCR); assay type: cell-based; conditions: inhibitor together with insulin
Description: FIGS. 10a-d depict the effect of insulin on Foxa-2 activity. FIG. 10a is a bar graph depicting relative Foxa-2 activity in HepG2 cells transfected with an expression vector for Foxa-2 and […]-Luc (gray bars) or p6xCdx-TkLuc (black bars). Cells were treated with insulin alone or in the presence of Ly294002 or PD98059. FIG. 10b is a bar graph depicting relative Foxa-2 activity in HepG2 cells transfected with p6xCdx-TkLuc and treated with insulin alone or in the presence of Ly294002 or PD98059. […] FIG. 10d is a bar graph depicting relative Foxa-2 activity in HepG2 cells transfected with an expression vector for Foxa-1, Foxa-2, Akt or Akt[…] alone or in combination, using p6xCdx-TkLuc as reporter gene. In all experiments luciferase activity was normalized to β-Gal activity. […] Levels of mRNA were analyzed to determine whether inhibition of Foxa-2 target gene expression by insulin is controlled at a transcriptional or posttranscriptional level. The mRNA levels of Pepck, G6pc and Igfbp-1 in primary hepatocytes that were cultured either in the presence or absence of insulin, PI3-kinase or MAPKK1 inhibitors were measured.

Foxa-2 [6] = assay: Nuclear Foxa-2 in perfused livers, immunoblotting; assay type: in vivo, mice; conditions: liver perfusion experiments

Work on “6xCdx-TkLuc (six Foxa-2 sites of the Cdx-2 gene)” yielded an activity (fold activation) (Foxa-2 (transfected); HepG2, decreased by insulin or Akt) of 5.

With “leptin: factor with effects on adipocyte differentiation and metabolism” the Foxa-2 expression (Foxa-2 expression [1]) was “unable to raise” and the “De novo expression of Foxa-2” value (Foxa-2 expression [2]) was “could not be induced”.

With TNF-α the Foxa-2 expression (Foxa-2 expression [1]) was “unable to raise” and the “De novo expression of Foxa-2” value (Foxa-2 expression [2]) was “could not be induced”.

In the case of “HA-Akt (human Akt1 fused to an N-terminal HA-tag, expressed from pCMV-HA-Akt)”, the “phosphorylation in an in vitro kinase assay ([gamma-32P]-ATP, autoradiography)” value (from here on “phosphorylation”) [3] is reported as “no phosphorylation could be observed using Foxa-2T156A protein as substrate” and the “phosphorylation” value [4] is reported as “wildtype Foxa-2 was phosphorylated by either Akt or myrAkt”.

“Pref-1 promoter (1.3 kb) luciferase reporter” was tested, and the activity (fold activation) (Foxa-2 (transfected); 3T3-L1 luciferase reporter) was 6.

For COc1cccc(-c2cc(=O)c3ccccc3o2)c1N [PD98059, reference compound], the “insulin mediated decrease of Foxa-2 activity” value (Foxa-2 activity) was “did not influence”, the “subcellular localization of endogenous Foxa-2 / insulin stimulated nuclear exclusion” value (Foxa-2 [5]) was “no effect” and the “mRNA levels of Pepck, G6pc and Igfbp-1” value (Pepck, G6pc and Igfbp-1) was “significantly reduced”.

“glucagon: hormone tested on Foxa-2 expression and nuclear localization” was tested, and the Foxa-2 nuclear localization (Foxa-2 [6]) was “does not affect”, the Foxa-2 expression (Foxa-2 expression [1]) was “unable to raise” and the “De novo expression of Foxa-2” value (Foxa-2 expression [2]) was “could not be induced”.

Work on “Pref-1 promoter reporter, upstream Foxa element deleted” yielded an activity (% reduction of activity) (Foxa-2 (transfected); 3T3-L1 luciferase reporter) of 50.

For “IL6: factor with effects on adipocyte differentiation and metabolism”, the Foxa-2 expression (Foxa-2 expression [1]) was “unable to raise” and the “De novo expression of Foxa-2” value (Foxa-2 expression [2]) was “could not be induced”.

For “constitutively active Akt, HA-tagged (pCMV-HA-myrAkt)”, the “phosphorylation” value [3] was “no phosphorylation could be observed using Foxa-2T156A protein as substrate” and the “phosphorylation” value [4] was “wildtype Foxa-2 was phosphorylated by either Akt or myrAkt”.

Molecule “PEPCK promoter (621 bp) luciferase reporter” has an activity (fold activation) (Foxa-2 (transfected); HepG2, about 6-fold in FIG. 11c) of 5.

B1: adiponectin: factor with effects on adipocyte differentiation and metabolism (protein, UniProt Q15848 19-244, looked up)
Adiponectin: ETTTQGPGVLLPLPKGACTGWMAGIPGHPGHNGAPGRDGRDGTPGEKGEKGDPGLIGPKGDIGETGVPGAEGPRGFPGIQGRKGEPGEGAYVYRSAFSVGLETYVTIPNMPIRFTKIFYNQQNHYDGSTGKFHCNIPGLYYFAYHITVYMKDVKVSLFKKDKAMLFTYDQYQENNVDQASGSVLLHLEVGDQVWLQVYGEGERNGLYADNDNDSTFTGFLLYHDTN
For B1, the Foxa-2 expression (Foxa-2 expression [1]) was “unable to raise” and the “De novo expression of Foxa-2” value (Foxa-2 expression [2]) was “could not be induced”.
